≈ marks a conversion by molar mass, not a printed value. Read-outs that look alike come from different tables or passages of the source.
Tests used:
Type in all cases: cell-based
[1] = test system: A. baumannii ATCC BAA-1797; assay: MIC on A. baumannii ATCC BAA-1797; conditions: Acinetobacter baumannii
In short: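 Cells adjusted to ~5×10^5 CFU/mL in MHB or MHB with 10%, 20% or 40% FBS, treated with two-fold serial compound dilutions in glass tubes and incubated 18 hours at 37° C. Growth read visually or by MTT (10% v/v, 10 min) with OD at 595 nm.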

HeLa cells [2] = assay: HeLa cell toxicity IC50 (MTT); conditions: Homo sapiens, 10% FBS
Procedure: HeLa cells: HeLa cells were trypsinized and counted in number of cells/mL using a hemocytometer. Cells were then plated at 4×10^3 HeLa cells/100 μL in tissue culture-treated 96-well plates in DMEM+1% penicillin/streptomycin (P/S)+10% FBS. HeLa cells were treated with 100 μM of a compound of interest and serially diluted two-fold. Samples were also prepared with no treatment, 1% DMSO, and 100 μM PAO. The cells were incubated for 48 hours at 37° C. in a humidified incubator with 5% CO2. 10% v/v MTT reagent (5 mg/mL stock) was added to each sample, and the samples were incubated for 2 hours before removing the supernatant and solubilizing the samples in 100 μL DMSO. OD readings were obtained at 595 nm. IC50 values were reported.

[3] = test system: RecA-GFP fusion protein in E. coli MG1655; assay: Inhibition of norfloxacin-triggered RecA-GFP induction in E. coli MG1655
Procedure: An increase in DNA damage-induced RecA protein expression is required for identification and repair of DNA lesions. LexA-repressed transcription of a norfloxacin-triggered SOS response was measured by detecting an increase in RecA-GFP fusion protein fluorescence in an E. coli recombinant model. The compounds of the disclosure inhibited RecA-GFP induction and presumably, the concurrent SOS response. Inhibition of RecA-GFP expression correlated with an increase in cell death, most likely as a result of ALD activation. Sub-potent concentrations of Polymixin E were used to facilitate entry of the compounds into cells.
E. coli MG1655 was grown from a glycerol stock by placing a small volume of cells onto a MHA plate. The MHA plate was incubated overnight at 37° C. A single colony was subsequently used to inoculate MHB+10 μg/mL kanamycin to obtain a bacterial broth suspension. This was grown in at 37° C. on a rotary shaking incubator (100 rpm) for 12 hours. The bacterial cell concentration was adjusted to ˜5×10^5 colony forming units per milliliter (CFU/mL) in MHB using optical density at 595 nm. Treated cells with polymyxin E (PME) or norfloxacin (in μg/ml) at indicated concentrations for 30 minutes at 37° C. and then added a compound of the disclosure at indicated micromolar concentrations. Incubated for 3.5 hours at 37° C. Cell samples were read on the flow cytometer to detect (green fluorescent) RLU RecA expression and/or shutdown.
E. coli MG1655 was grown from a glycerol stock by placing a small volume of cells onto a MHA plate. The MHA plate was incubated overnight at 37° C. A single colony was subsequently used to inoculate MHB+10 μg/mL kanamycin to obtain a bacterial broth suspension. The MHB broth suspension was grown at 37° C. on a rotary shaking incubator (100 rpm) for 12 hours. The bacterial cell concentration was adjusted to ˜5×10^5 CFU/mL in MHB using OD at 595 nm.
Cells were treated with 0.03 μg/mL and 0.06 μg/mL norfloxacin for 30 minutes at 37° C. Then, 100 μM of the compounds were added. The cells were incubated for 3.5 hours at 37° C. 200 μL aliquots were removed and read by a flow cytometer to detect RecA production and/or shutdown. The cells were incubated for an additional 18 hours at 37° C. to assess overall toxicity.

[4] = test system: A. baumannii ATCC BAA-1797; assay: Colony counts of A. baumannii ATCC BAA-1797 treated with 4xMIC for 16 hours; conditions: for kill of A. baumannii ATCC BAA-1797: 4xMIC (24 μM Compound 25, 24 μM Compound 26, 100 μM Compound 27, 48 μM Compound 14, 100 μM Compound 15)
A. baumannii ATCC 15151 = assay: ATP decrease (luciferase); conditions: 1xMIC and 2xMIC; 25 minutes
A. baumannii ATCC 1515 = assay: Membrane depolarization detected by DiOC2(3); conditions: 1xMIC; for cell membrane depolarization: 20 μM CCCP, 25 minutes; for cell membrane depolarization over time: 10, 20, 30, and 50 minutes
A. baumannii = assay: Synergy with PME (Table 7)
HeLa cells [5] = assay: HeLa cell toxicity IC50 (MTT); conditions: Homo sapiens
[6] = ATCC 1797 / ATCC BAA-1797, 0% FBS, read-out: MIC (μM) in MDR A. baumannii ATCC 1797 0% FBS
[7] = ATCC 1797 / ATCC BAA-1797, 10% FBS, read-out: MIC (μM) in MDR A. baumannii ATCC 1797 10% FBS
[8] = ATCC 1797 / ATCC BAA-1797, read-out: MIC (μM) in MDR A. baumannii ATCC 1797 40% FBS, 40% FBS
[9] = ATCCBAA1797, 18 h, read-out: MIC in the presence of 40% FBS, A. baumannii ATCC BAA-1797, 40% FBS
[10] = ATCCBAA1797, Table 7, 10% FBS, read-out: MIC in 10% FBS
[11] = ATCCBAA1797, Table 7, no serum stated, read-out: MIC
[12] = ATCCBAA1797, read-out: MIC in 40% FBS (μM), Table 7, 40% FBS
[13] = HeLa, Table 7, read-out: IC50 on HeLa in 10% FBS
[14] = HeLa cells, read-out: IC50 10% FBS
[15] = HeLa, read-out: IC50 on HeLa in 40% FBS, Table 7
[16] = read-out: IC50 40% FBS, HeLa cells
[17] = ATCCBAA1797, A. baumannii ATCC BAA-1797, absence of serum, read-out: MIC in the absence of serum

Structure (SMILES)	MIC [1, 6] [µM]	MIC [1, 7] [µM]	MIC [1, 8] [µM]	MIC [1, 9] [µM]	MIC [1, 10] [µM]	MIC [1, 11] [µM]	MIC [1, 12] [µM]	IC50 (HeLa cells [2]; [13]) [µM]	IC50 (HeLa cells [2]; [14]) [µM]	RecA attenuation with norflox on E. coli [3]	Kill at 4X MIC at 16 hours [4]	kill of A. baumannii ATCC BAA-1797 [4]	ATP decrease (A. baumannii ATCC 15151)	cell membrane depolarization (A. baumannii ATCC 1515)	Synergize with PME? (A. baumannii)	IC50 (HeLa cells [5]; [15]) [µM]	IC50 (HeLa cells [5]; [16]) [µM]	MIC [1, 17] [µM]	cell membrane depolarization over time (A. baumannii ATCC 1515)	further results
Nc1cccc2[nH]cc(/C=N/Nc3ccc(Cl)cc3)c12 [Compound 14, (E)-3-((2-(4-chlorophenyl)hydrazineylidene)methyl)-1H-indol-4-amine]	6 (≈ 1.71 µg/mL)	> 100	50 (≈ 14.2 µg/mL)	50	> 100	6 (≈ 1.71 µg/mL)	50 (≈ 14.2 µg/mL)	36.7 ± 3.8	36.7 ± 3.8	Yes	5-logs	~5 orders of magnitude	caused a decrease in ATP	depolarized the cell membrane	Yes, at 4 μM	183	183			MIC ([1]; ATCCBAA1797, read-out: MIC in the absence of serum): 12.5 µM (≈ 3.56 µg/mL); MIC ([1]; ATCCBAA1797, read-out: MIC in the presence of 40% human serum, A. baumannii ATCC BAA-1797, 40% human serum): > 100 µM
Clc1ccc(N/N=C/c2c[nH]c3ccc(Br)cc23)cc1 [Compound 15, (E)-5-bromo-3-((2-(4-chlorophenyl)hydrazineylidene)methyl)-1H-indole]	12.5 (≈ 4.36 µg/mL)	> 100	50 (≈ 17.4 µg/mL)	100	> 100	12.5 (≈ 4.36 µg/mL)	> 100	20.9 ± 1.5	20.9 ± 1.5	Yes	6-logs	~5 orders of magnitude	caused a decrease in ATP			67.4	67.4	6 (≈ 2.09 µg/mL)	caused the most depolarization	
Brc1ccc(N/N=C/c2c[nH]c3cccc(OCc4ccccc4)c23)cc1.Cl [Compound 25, (E)-2-((4-(benzyloxy)-1H-indol-3-yl)methylene)-1-(4-bromophenyl)hydrazin-1-ium chloride]	6	> 100	50	< 50	> 100	6	50	30.4 ± 3.3	30.4 ± 3.3	Yes	5-logs	~5 orders of magnitude	caused a decrease in ATP	depolarized the cell membrane	Yes, at 1 μM	101	101	6	depolarized the membrane the least	
Cl.Clc1ccc(N/N=C/c2c[nH]c3cccc(OCc4ccccc4)c23)cc1 [Compound 26, (E)-2-((4-(benzyloxy)-1H-indol-3-yl)methylene)-1-(4-chlorophenyl)hydrazin-1-ium]	6	> 100	100	50	> 100	6	100	37.3 ± 1.8	37.3 ± 1.8	Yes	5-logs	~5 orders of magnitude	caused a decrease in ATP	depolarized the cell membrane	Yes, at 1 μM	58.2	58.2	5		MIC ([1]; ATCCBAA1797, A. baumannii ATCC BAA-1797, 10% FBS, read-out: MIC in the presence of 10% FBS): > 100 µM
Cl.Fc1ccc(N/N=C/c2c[nH]c3cccc(OCc4ccccc4)c23)cc1 [Compound 27, (E)-2-((4-(benzyloxy)-1H-indol-3-yl)methylene)-1-(4-fluorophenyl)hydrazin-1-ium]	12.5	> 100	50	25	> 100	12.5	50	25.8 ± 5.2	25.8 ± 5.2	Yes	5-logs	~5 orders of magnitude	caused a decrease in ATP		Yes, at 6 μM	69.7	69.7	5	caused the most depolarization	
